Literature values, collected in patent publication US7358276B2, “2-Oxo-1-pyrrolidine derivatives, processes for preparing them and their uses” (UCB, S.A., priority 2000, dated 2008).

Settings: A. J. GOWER et al., Eur. J. Pharmacol., 222, (1992), 193-203; cited from earlier work

SMILES | activity in the treatment of epilepsy
CC[C@@H](C(N)=O)N1CCCC1=O [Levetiracetam, (S)-α-ethyl-2-oxo-1-pyrrolidine acetamide] | effective in the treatment of epilepsy
CC[C@H](C(N)=O)N1CCCC1=O [(R)-α-ethyl-2-oxo-1-pyrrolidine acetamide] | completely lacks activity
